Measured values reported in patent US20180030091A1, “COLLAGEN-BINDING SYNTHETIC PEPTIDOGLYCANS FOR USE IN VASCULAR INTERVENTION” (Purdue Research Foundation, priority 2010, published 2018).
Entries after “also recorded” stand apart in the source; their conditions may differ. Where no end group is shown, it is not given here.

How the values were obtained:
Fibrillar collagen [1] = test: Binding affinity of biotin labeled peptidoglycan to fibrillar collagen; conditions: biotin labeled peptidoglycans, fitted saturation binding curves
Description: Fibrillar collagen (Chronolog, Havertown, Pa.) was coated onto the surface of a 96-well high bind plate (Costar) at a concentration of 50 μg/mL diluted in isotonic glucose. Plates were covered and incubated overnight at 4° C. Unbound collagen was removed by rinsing 3 times with 1×PBS pH 7.4. Plates were then blocked with 1% BSA for 3 hours at room temperature. Peptidoglycan was dissolved at varying concentrations in 1×PBS pH 7.4 containing 1% BSA and were immediately added to the collagen surfaces, and allowed to incubate for 15 min at room temperature. Plates were then rinsed 3 times with 1×PBS pH 7.4 containing 1% BSA. Streptavidin-HRP solution (R&D Systems, Minneapolis, Minn.) was then added to the plates and incubated for 20 minutes at room temperature. […] The color evolving reaction was stopped with 50 μL 2N sulfuric acid and absorbance was measured at 450 nm using an M5 UV Vis Spectrophotometer (Molecular Devices). Plate imperfections (540 nm) were subtracted from absorbance values.
The binding affinities of biotin labeled peptidoglycans, labeled using protocols known in the art, DS-SILY4 and DS-SILY18 were calculated by fitting the saturation binding curves and calculating the inflection point. […]

[2] = system: Human platelets on Type I fibrillar collagen; test: Inhibition of platelet activation on fibrillar collagen after 24 hour rinse (PF4, NAP2); assay type: cell-based; conditions: unbound peptidoglycan rinsed over 24 hours; PF-4 and Nap-2 release
Description: Type I fibrillar collagen from Chronolog was diluted in isotonic glucose to a concentration of 50 μg/mL. 50 μL of collagen solution was added to each well of a high bind 96-well plate. The plate was incubated overnight at 4° C., and then rinsed 3× with 1×PBS. For microplate assays, peptidoglycan was diluted in 1×PBS at concentrations between 0.0001 μM to 100 μM and 50 μL solution was added to the collagen coated wells. DS, peptide, or 1×PBS were also added to collagen coated wells as controls. Treatments were incubated at 37° C. with shaking at 200 rpm for 15 min. Wells were then rinsed of unbound treatment by removing the treatment solution, adding PBS, and shaking the wells for 24 hours. During the 24 hours, PBS solution was changed 3 times.
Human whole blood was collected from healthy volunteers by venipuncture. The first 5 mL of blood was discarded and approximately 20 mL was then collected into citrated glass vacutainers (BD Bioscience). Blood was centrifuged in the glass tube for 20 min at 200 g at 25° C. The top layer of the centrifuged blood, the platelet rich plasma (PRP), was used for platelet experiments.
PRP (50 μL/well) was added to the microplate for 1 hour at room temperature without shaking. After 1 hour of incubation, 45 μL of PRP was removed from each well and added to a microcentrifuge tube containing […] ETP (107 mM EDTA, 12 mM theophylline, and 2.8 mM prostaglandin E1) to inhibit further platelet activation. These tubes were spun at 4° C. for 30 min at 2000 g to pellet the platelets. The supernatant (platelet serum) was collected for ELISA studies to test for the presence of platelet activation markers PF-4 and NAP2. Sandwich ELISAs were utilized in order to detect each protein. The components for both sandwich ELISAs were purchased from R&D Systems and the provided protocols were followed. Platelet serum was diluted 10,000 times in 1% BSA in 1×PBS for values to fall within a linear range.
Platelet activation was measured through release of platelet factor 4 (PF4) and β-thromboglobulin (NAP2). […] Since the high SILY/DS ratio is expected to provide higher binding affinity to the collagen surface due to multiple interactions, peptidoglycans with the higher SILY/DS ratios were prepared.
The number of peptides per DS molecule was further increased to 18 to create the peptidoglycan DS-SILY18, and the concentration of molecule needed to inhibit platelet activation was tested. […] Within solubility limits, the number of peptides can be increased to achieve maximal platelet inhibition as well as to reduce diffusion over time, where a higher level of peptidoglycans on the denuded vessel wall is sustained.

Fibrillar collagen [3] = test: Peptidoglycan diffusion from collagen surface; assay type: binding; conditions: after 1 week of extensive rinsing at 37° C.; applied at 10 μM
Description: The peptidoglycan OS-SILY18-biotin was dissolved at 10 μM in 1×PBS pH 7.4 with 2% BSA and was incubated on fibrillar collagen coated plates prepared as described. The plate was incubated at 37° C. on an orbital shaker and was rinsed extensively with 1×PBS pH 7.4. At various time points up to 11 days, OS-SILY18-biotin was detected on the surface as described for the binding affinity studies. The curve of diffusion of peptidoglycan from the collagen surface was fitted using a hyperbolic decay.
The diffusion of the peptidoglycan DS-SILY18 from a collagen surface was measured by incubating at 37° C. and rinsing extensively in order to mimic blood flow in vivo. Peptidoglycan was incubated on fibrillar collagen surfaces and detected by the same methods for calculating binding affinities. […] It is estimated that complete endothelial cell regrowth occurs within 1 week of balloon injury, and thus this time frame is useful for preventing platelet binding until endothelial cells grow back and provide a permanent cover to the underlying collagen.

[4] = system: Human coronary artery endothelial cells (ECs); test: Endothelial cell proliferation; assay type: cell-based; conditions: highest concentration tested (final concentrations 35, 3.5, and 0.35 μM); 48 hours
Description: Human coronary artery endothelial cells (ECs) (Lonza, Walkersville, Md.) were seeded in 96-well plates at a cell density of 1.5×10^3 cells/well. Cells were allowed to adhere to the surface for 24 hours and adherent ECs were stained using cell tracker green (Invitrogen, Carlsbad, Calif.). Initial cell number was determined by measuring fluorescence of each well with 492 nm excitation and 517 nm emission.
DS-SILY18 was solubilized in water at a concentration of […] and diluted in water 10 fold for concentrations of 175, 17.5, and 1.75 μM. The DS-SILY solution was diluted 5 fold with cell media for final concentrations of […]. The control consisted of diluting water 5 fold with cell media. 100 μL of media with DS-SILY was added to each well and the cell number was determined 48 hours later by measuring fluorescence. The percent change in cell number in each well was calculated.

[5] = system: Whole blood on fibrillar collagen; test: Inhibition of whole blood binding to collagen under flow; assay type: cell-based; conditions: 50 μM for 15 min; 5.6 mL/hr, shear rate 1000 s^−1, 5 min of flow
Description: Flow kits were obtained from Ibidi (Martinsried, Germany). Each channel was coated with fibrillar collagen as described for static microplate studies. Excess collagen was removed from the flow channel by extensive rinsing with 1×PBS through the channel. DS-SILY18 was incubated in the channel at a concentration of 50 μM for 15 min at 37° C., and unbound peptidoglycan was rinsed with 1×PBS. Control channels consisted of collagen not treated with peptidoglycan.
Whole blood was pushed through the flow channels by a syringe pump at a flow rate of 5.6 mL/hr, corresponding to a physiologically relevant shear rate of 1000 s^−1 (Badimon L, Badimon J J, Turitto V T, Vallabhajosula S, Fuster V. Platelet thrombus formation on collagen type I—a model of deep vessel injury—influence of blood rheology, von Willebrand Factor, and blood-coagulation. Circulation 1988; 78(6):1431-42). After 5 min of flow, 1×PBS pH 7.4 was pushed through at the same flow rate for 10 min to wash unbound cells. Brightfield images (n=3) were taken of each flow channel with a 10× objective. Images were thresholded and quantified for cellular coverage using ImageJ (NIH, Bethesda, Md.) and MatLab (Mathworks, Natick, Mass.) respectively. Control channels were assumed to have complete cellular coverage.

## DS-SILY18: dermatan sulfate with 18 peptides of the sequence RRANAALKAGELYKSILYGC linked to the glycan (RRANAALKAGELYKSILYGC-NH2; also: 18 copies linked to dermatan sulfate)
Fibrillar collagen [1]
  Kd: 24 nM
[2]
  concentration at which maximal inhibition of platelet activation was achieved: 10 µM
Fibrillar collagen [3]
  equivalent concentration remaining bound on collagen surface: approximately 10 nM
[4]
  endothelial cell proliferation (percent change in cell number): significant increase in cell proliferation
[5]
  blood cell binding to collagen under flow: inhibition; also recorded: much less blood cell binding to collagen
